The test system of the assay is KRas G12D-mediated phosphorylation of ERK. Briefly: Inhibition of KRas G12D-mediated phosphorylation of ERK in AGS cells. In kind it is cell-based. To be noted: Homo sapiens; AGS cells expressing G12D, 3 hours, phospho-ERK normalized to GAPDH. The method in brief: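 In-cell Western: p-ERK Thr202/Tyr204 signal over GAPDH, as % of DMSO control, with IC50 from a 4-parameter curve. AGS cells seeded 40,000/well for 12-14 h, exposed to compound 3 h at 0.5% DMSO final, then formaldehyde-fixed and methanol-permeabilized.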

Counter-ions that a name gives are not always drawn.

IC50 data for 24 molecules are collected here from patent publication US11453683B1, “KRas G12D inhibitors” (Mirati Therapeutics, Inc., priority 2019, dated 2022).

For orientation: IC50 means the concentration that inhibits the measured activity by half. `Fc1c(-c2cccc3cccc(Cl)c23)ncc2c(N3CC4CC(F)C(C3)N4)nc(OC[C@@]34CCCN3C[C@H](F)C4)nc12` (stereo partly drawn) [Example 396, 7-(8-chloronaphthalen-1-yl)-8-fluoro-4-(6-fluoro-3,8-diazabicyclo[3.2.1]octan-3-yl)-2-((2-fluorotetrahydro-1H-pyrrolizin-7a(5H)-yl)methoxy)pyrido[4,3-d]pyrimidine] showed a half-inhibitory concentration (IC50) of 8.17 µM.

In turn, `Oc1cc(-c2ncc3c(N4C[C@H]5CC[C@@H](C4)N5)nc(OCC(F)(F)F)nc3c2F)c2ccccc2c1` [Example 48, 4-(4-((1R,5S)-3,8-diazabicyclo[3.2.1]octan-3-yl)-8-fluoro-2-(2,2,2-trifluoroethoxy)pyrido[4,3-d]pyrimidin-7-yl)naphthalen-2-ol] showed an IC50 of 4.88 µM.

The molecule `Fc1c(-c2cccc(C(F)(F)F)c2C(F)(F)F)ncc2c(N3C[C@H]4CC[C@@H](C3)N4)nc(OCC34CCCN3CCC4)nc12` [Example 197, 4-((1R,5S)-3,8-diazabicyclo[3.2.1]octan-3-yl)-7-(2,3-bis(trifluoromethyl)phenyl)-8-fluoro-2-((tetrahydro-1H-pyrrolizin-7a(5H)-yl)methoxy)pyrido[4,3-d]pyrimidine] returned an IC50 greater than 16.7 µM.

In turn, `CN1CCC[C@H]1COc1nc(N2CC3CCC(C=O)(C2)N3)c2cnc(-c3cc(O)cc4ccccc34)c(F)c2n1` (stereo partly drawn) [Example 214, 3-(8-fluoro-7-(3-hydroxynaphthalen-1-yl)-2-(((S)-1-methylpyrrolidin-2-yl)methoxy)pyrido[4,3-d]pyrimidin-4-yl)-3,8-diazabicyclo[3.2.1]octane-1-carbaldehyde] had an IC50 greater than 16.7 µM.

In turn, `CCC#Cc1cccc2cccc(-c3ncc4c(N5C[C@H]6CC[C@@H](C5)N6)nc(OCC56CCCN5CCC6)nc4c3F)c12` [Example 242, 4-((1R,5S)-3,8-diazabicyclo[3.2.1]octan-3-yl)-7-(8-(but-1-yn-1-yl)naphthalen-1-yl)-8-fluoro-2-((tetrahydro-1H-pyrrolizin-7a(5H)-yl)methoxy)pyrido[4,3-d]pyrimidine] yielded an IC50 greater than 16.7 µM.

In the case of `Fc1c(-c2c(OC(F)(F)F)ccc3[nH]ncc23)ncc2c(N3C[C@H]4CC[C@@H](C3)N4)nc(OCC34CCCN3CCC4)nc12` [Example 258, 4-((1R,5S)-3,8-diazabicyclo[3.2.1]octan-3-yl)-8-fluoro-2-((hexahydro-1H-pyrrolizin-7a-yl)methoxy)-7-(5-(trifluoromethoxy)-1H-indazol-4-yl)pyrido[4,3-d]pyrimidine], the IC50 was 1.46 µM.

Molecule `Fc1c(-c2cccc3c2CC2CC32)ncc2c(N3CC4CCC(C3)N4)nc(OC[C@@]34CCCN3C[C@H](F)C4)nc12` (stereo partly drawn) [Example 438, 4-(3,8-diazabicyclo[3.2.1]octan-3-yl)-8-fluoro-2-(((2R,7aS)-2-fluorotetrahydro-1H-pyrrolizin-7a(5H)-yl)methoxy)-7-(1,1a,6,6a-tetrahydrocyclopropa[a]inden-5-yl)pyrido[4,3-d]pyrimidine] showed an IC50 of 1.63 µM.

As to `CC(C)c1c(Cl)cc(O)cc1-c1ncc2c(N3C[C@H]4CC[C@@H](C3)N4)nc(OC[C@@]34CCCN3C[C@H](F)C4)nc2c1F` [Example 291, 3-(4-((1R,5S)-3,8-diazabicyclo[3.2.1]octan-3-yl)-8-fluoro-2-(((2R,7aS)-2-fluorohexahydro-1H-pyrrolizin-7a-yl)methoxy)pyrido[4,3-d]pyrimidin-7-yl)-5-chloro-4-isopropylphenol], half-maximal inhibition (IC50) required 0.0465 µM.

`O[C@@H]1C[C@@H]2CN(c3nc(OCCc4ccc(F)cn4)nc4c(F)c(-c5cccc6cccc(Cl)c56)ncc34)C[C@H]1N2` [Example 32, (1R,5R,6R)-3-(7-(8-chloronaphthalen-1-yl)-8-fluoro-2-(2-(5-fluoropyridin-2-yl)ethoxy)pyrido[4,3-d]pyrimidin-4-yl)-3,8-diazabicyclo[3.2.1]octan-6-ol] returned an IC50 greater than 50 µM.

The molecule `CO[C@@H]1C[C@@H]2CN(c3nc(OC[C@@]45CCCN4C[C@H](F)C5)nc4c(F)c(-c5cccc6cccc(Cl)c56)ncc34)C[C@H]1N2` [Example 397, 7-(8-chloronaphthalen-1-yl)-8-fluoro-2-((2-fluorotetrahydro-1H-pyrrolizin-7a(5H)-yl)methoxy)-4-((1R,5R,6R)-6-methoxy-3,8-diazabicyclo[3.2.1]octan-3-yl)pyrido[4,3-d]pyrimidine] displayed an IC50 greater than 16.7 µM.

For `O=C(CCl)N1CCC(Oc2nc(N3C[C@H]4CC[C@@H](C3)N4)c3cnc(-c4cccc5cccc(Cl)c45)c(F)c3n2)CC1` [Example 163, 1-(4-((4-((1R,5S)-3,8-diazabicyclo[3.2.1]octan-3-yl)-7-(8-chloronaphthalen-1-yl)-8-fluoropyrido[4,3-d]pyrimidin-2-yl)oxy)piperidin-1-yl)-2-chloroethan-1-one bis(2,2,2-trifluoroacetate)], the IC50 was greater than 16.7 µM.

`Fc1c(-c2cccc3ccccc23)ncc2c(N3C[C@H]4CC[C@@H](C3)N4)nc(OCC34CCCN3CCC4)nc12` [Example 186, 4-((1R,5S)-3,8-diazabicyclo[3.2.1]octan-3-yl)-8-fluoro-7-(naphthalen-1-yl)-2-((tetrahydro-1H-pyrrolizin-7a(5H)-yl)methoxy)pyrido[4,3-d]pyrimidine]: the half-maximal inhibitory concentration (IC50) amounted to 3.38 µM.

Regarding `Oc1cc(-c2ncc3c(N4C[C@H]5CC[C@@H](C4)N5)nc(N4CC5(CCOC5)C4)nc3c2F)c2ccccc2c1` [Example 76, 4-(4-((1R,5S)-3,8-diazabicyclo[3.2.1]octan-3-yl)-8-fluoro-2-(6-oxa-2-azaspiro[3.4]octan-2-yl)pyrido[4,3-d]pyrimidin-7-yl)naphthalen-2-ol], the IC50 worked out at 7.41 µM.

With `FCCc1cccc2cccc(-c3ncc4c(N5C[C@H]6CC[C@@H](C5)N6)nc(OCC56CCCN5CCC6)nc4c3F)c12` [Example 248, 4-((1R,5S)-3,8-diazabicyclo[3.2.1]octan-3-yl)-8-fluoro-7-(8-(2-fluoroethyl)naphthalen-1-yl)-2-((tetrahydro-1H-pyrrolizin-7a(5H)-yl)methoxy)pyrido[4,3-d]pyrimidine], the IC50 was 1.08 µM.

With `CCc1ccc(O)cc1-c1ncc2c(N3C[C@H]4CC[C@@H](C3)N4)nc(OCC34CCCN3CCC4)nc2c1F` [Example 263, 3-(4-((1R,5S)-3,8-diazabicyclo[3.2.1]octan-3-yl)-8-fluoro-2-((hexahydro-1H-pyrrolizin-7a-yl)methoxy)pyrido[4,3-d]pyrimidin-7-yl)-4-ethylphenol], the IC50 was 7.64 µM.

The molecule `Oc1cc(-c2ncc3c(N4C[C@H]5CC[C@@H](C4)N5)nc(N4CCC4)nc3c2F)c2ccccc2c1` [Example 119, 4-(2-(azetidin-1-yl)-4-((1R,5S)-3,8-diazabicyclo[3.2.1]octan-3-yl)-8-fluoropyrido[4,3-d]pyrimidin-7-yl)naphthalen-2-ol 2,2,2-trifluoroacetate] came in with an IC50 of 3.7 µM.

The molecule `Oc1cc(-c2ncc3c(N4C[C@H]5CC[C@@H](C4)N5)nc(OCCc4cccnc4)nc3c2F)c2ccccc2c1` [Example 106, 4-(4-((1R,5S)-3,8-diazabicyclo[3.2.1]octan-3-yl)-8-fluoro-2-(2-(pyridin-3-yl)ethoxy)pyrido[4,3-d]pyrimidin-7-yl)naphthalen-2-ol] came in with an IC50 of 3.1 µM.

Turning to `Cc1cc(-c2ncc3c(N4C[C@H]5CC[C@@H](C4)N5)nc(OCC45CCCN4CCC5)nc3c2F)c2c(Cl)cccc2c1` [Example 175, 4-((1R,5S)-3,8-diazabicyclo[3.2.1]octan-3-yl)-7-(8-chloro-3-methylnaphthalen-1-yl)-8-fluoro-2-((hexahydro-1H-pyrrolizin-7a-yl)methoxy)pyrido[4,3-d]pyrimidine], the IC50 is greater than 5.56 µM.

`CO[C@H]1CN[C@H](COc2nc(N3C[C@H]4CC[C@@H](C3)N4)c3cnc(-c4cccc5cccc(Cl)c45)c(F)c3n2)C1` [Example 351] gave an IC50 greater than 16.7 µM.

`FCCCc1cccc2cccc(-c3ncc4c(N5C[C@H]6CC[C@@H](C5)N6)nc(OCC56CCCN5CCC6)nc4c3F)c12` [Example 255, 4-((1R,5S)-3,8-diazabicyclo[3.2.1]octan-3-yl)-8-fluoro-7-(8-(3-fluoropropyl)naphthalen-1-yl)-2-((hexahydro-1H-pyrrolizin-7a-yl)methoxy)pyrido[4,3-d]pyrimidine] had an IC50 of 0.673 µM.

Regarding `Fc1c(-c2ccccc2OC(F)(F)F)ncc2c(N3C[C@H]4CC[C@@H](C3)N4)nc(OCC34CCCN3CCC4)nc12` [Example 229, 4-((1R,5S)-3,8-diazabicyclo[3.2.1]octan-3-yl)-8-fluoro-2-((tetrahydro-1H-pyrrolizin-7a(5H)-yl)methoxy)-7-(2-(trifluoromethoxy)phenyl)pyrido[4,3-d]pyrimidine bis-hydrochloride], the half-maximal inhibitory concentration (IC50) came out at 11.3 µM.

Regarding `CN1CCC[C@H]1COc1nc(N2C[C@H]3CC[C@@H](C2)N3)c2cnc(-c3cccc4ccc(F)cc34)c(F)c2n1` [Example 19, 4-((1R,5S)-3,8-diazabicyclo[3.2.1]octan-3-yl)-8-fluoro-7-(7-fluoronaphthalen-1-yl)-2-(((S)-1-methylpyrrolidin-2-yl)methoxy)pyrido[4,3-d]pyrimidine], the IC50 was greater than 16.7 µM.

Molecule `CN(C)C(=O)OC[C@H]1CC[C@@]2(COc3nc(N4CC5CCC(C4)N5)c4cnc(-c5cccc6cccc(Cl)c56)c(F)c4n3)CCCN12` [Example 405, (7a-(((4-(3,8-diazabicyclo[3.2.1]octan-3-yl)-7-(8-chloronaphthalen-1-yl)-8-fluoropyrido[4,3-d]pyrimidin-2-yl)oxy)methyl)hexahydro-1H-pyrrolizin-3-yl)methyl dimethylcarbamate] had a half-maximal inhibitory concentration (IC50) of 0.297 µM.

In the case of `COCCCN1CCC(Oc2nc(N3C[C@H]4CC[C@@H](C3)N4)c3cnc(-c4cc(O)cc5ccccc45)c(F)c3n2)CC1` [Example 41, 4-(4-((1R,5S)-3,8-diazabicyclo[3.2.1]octan-3-yl)-8-fluoro-2-((1-(3-methoxypropyl)piperidin-4-yl)oxy)pyrido[4,3-d]pyrimidin-7-yl)naphthalen-2-ol], the IC50 is 6.65 µM.
